As usually defined, the melting point is the temperature, or range, at which the solid turns liquid.

The subject of one data set is Adjuvant Arthritis in Rats. In words: Effect on adjuvant arthritis in rats (footpad swelling). Type of data set: in vivo. The settings on record: male Lewis rats, 3.13 mg/kg/day orally once daily for 14 days, left footpad edema on Day 14; ** p < 0.01 vs. control. The procedure: The test compound was suspended in 0.5% methyl cellulose and administered orally once daily for 14 days to male Lewis rats (7-week old, Japan Clea), which had been sensitized by the intradermal injection of 0.05 ml Freund's complete adjuvant (0.5% suspension of killed Mycobacterium tuberculosis in liquid paraffin) into the right hind footpad. Immediately before the sensitization (Day 0) and on 14 days after the administration (Day 14), the volume of the edema on the left footpad was measured by using a plethysmometer (manufactured by Ugo Basile Company, Italy) and the suppression rate (%) of footpad swelling relative to the unsensitized rats was calculated according to the following equation.
Suppression rate of footpad swelling (%)={1-[(volume of footpad edema in the treatment group)−(volume of footpad edema in the unsensitized group)]/[(volume of footpad edema in the non-treatment group)−(volume of footpad edema in the unsensitized group)]}×100
The results were expressed by the mean±S.E. in each group (n=6) and tested by Dunnet's comparison with a significance level of 5%.
Take “3-chloro-2-[(2,5-dioxopyrrolidin-1-yl)methyl]-5,6,7,8-tetrahydro-7-oxo-4-(4-methoxyphenyl)[1]-benzothieno[2,3-b]pyridine ethylene ketal [Example 13]”: the “Suppression rate of footpad swelling (%)” value is given as 77** %.

For the molecule `COc1ccc(-c2c(Cl)c(CN3C(=O)CCC3=O)nc3sc4c(c23)CC[S+]([O-])C4)cc1` (centres unmarked) [Example 22, 1-{[3-Chloro-4-(4-methoxyphenyl)-7-oxido-5,8-dihydro-6H-thiopyrano[4′,3′:4,5]thieno[2,3-b]pyridin-2-yl]methyl}-2,5-pyrrolidinedione], the “Suppression rate of footpad swelling (%)” value is reported as 88** %.

Test system in another data set: not given
Assay: not given
Conditions: not given
In turn, `CN(C)CC(=O)Oc1ccc(-c2c(Cl)c(CN3C(=O)CCC3=O)nc3sc4c(c23)CCS(=O)(=O)C4)cc1.Cl` showed a melting point of 199 to 200 °C. `COc1ccc(-c2c(Cl)c(CN3C(=O)CCC3=O)nc3sc4c(c23)CC[S+]([O-])C4)cc1` (centres unmarked) [Example 22, 1-{[3-Chloro-4-(4-methoxyphenyl)-7-oxido-5,8-dihydro-6H-thiopyrano[4′,3′:4,5]thieno[2,3-b]pyridin-2-yl]methyl}-2,5-pyrrolidinedione] showed a melting point of 268 to 269 °C. On the same count and under the same terms, then `COc1ccc(-c2c(Cl)c(CN3C(=O)CCC3=O)nc3sc4c(c23)CC[S@+]([O-])C4)cc1` [Example 46, (S)-1-{[3-chloro-4-(4-methoxyphenyl)-7-oxido-5,8-dihydro-6H-thiopyrano[4′,3′:4,5]thieno[2,3-b]pyridin-2-yl]methyl}-2,5-pyrrolidinedione], with 217 to 218.5 °C (dec.).

For the molecule `COc1ccc(-c2c(Cl)c(CN3C(=O)CCC3=O)nc3sc4c(F)c(OC)ccc4c23)cc1` [Example 60, 1-{[3-chloro-8-fluoro-7-methoxy-4-(4-methoxyphenyl)[1]-benzothieno[2,3-b]pyridin-2-yl]methyl}-2,5-pyrrolidinedione], the melting point is 215 to 216 °C. Consider `CC(=O)Oc1ccc(-c2c(Cl)c(CN3C(=O)CCC3=O)nc3sc4c(c23)CCS(=O)(=O)C4)cc1` [Example 64, 4-{3-chloro-2-[(2,5-dioxo-1-pyrrolidinyl)methyl]-7,7-dioxido-5,8-dihydro-6H-thiopyrano[4′,3′:4,5]thieno[2,3-b]pyridin-4-yl}phenylacetate], for which the melting point fell in the range of 272 to 273 °C. The same measure, in the same setting: under `CCC(=O)Oc1ccc(-c2c(Cl)c(CN3C(=O)CCC3=O)nc3sc4c(c23)CCS(=O)(=O)C4)cc1` [Example 65] stands 268 to 269 °C; under `CCOC(=O)COc1ccc(-c2c(Cl)c(CN3C(=O)CCC3=O)nc3sc4c(c23)CCS(=O)(=O)C4)cc1` [Example 110, ethyl (4-{3-chloro-2-[(2,5-dioxo-1-pyrrolidinyl)methyl]-7,7-dioxidO-5,8-dihydro-6H-thiopyrano[4′,3′:4,5]thieno[2,3-b]pyridin-4-yl}phenoxy)acetate], 215 to 216 °C. On the same count and under the same terms, then `CC(C)(C)OC(=O)COc1ccc(-c2c(Cl)c(CN3C(=O)CCC3=O)nc3sc4c(c23)CCSC4)cc1` [Example 112, tert-butyl (4-{3-chloro-2-[(2,5-dioxo-1-pyrrolidinyl)methyl]-5,8-dihydro-6H-thiopyrano[4′,3′:4,5]-thieno[2,3-b]pyridin-4-yl}phenoxy)acetate], with 191 to 192 °C; and `CC(C)(C)OC(=O)COc1ccc(-c2c(Cl)c(CN3C(=O)CCC3=O)nc3sc4c(c23)CC[S+]([O-])C4)cc1` (centres unmarked) [Example 113, tert-butyl (4-{3-chloro-2-[(2,5-dioxo-1-pyrrolidinyl)methyl]-7-oxido-5,8-dihydro-6H-thiopyrano[4′,3′:4,5]thieno(2,3-b]pyridin-4-yl}phenoxy)-acetate], with 175 to 176 °C. Molecule `CC(C)(C)OC(=O)COc1ccc(-c2c(Cl)c(CN3C(=O)CCC3=O)nc3sc4c(c23)CCS(=O)(=O)C4)cc1` [Example 114, tert-butyl (4-{3-chloro-2-[(2,5-dioxo-1-pyrrolidinyl)methyl]-7,7-dioxido-5,8-dihydro-6H-thiopyrano[4′,3′:4,5]thieno[2,3-b]pyridin-4-yl}phenoxy)acetate] came in with a melting point of 204 to 205 °C. In the case of `O=C(O)COc1ccc(-c2c(Cl)c(CN3C(=O)CCC3=O)nc3sc4c(c23)CC[S+]([O-])C4)cc1` (centres unmarked) [Example 115, (4-{3-chloro-2-[(2,5-dioxo-1-pyrrolidinyl)methyl]-7-oxido-5,8-dihydro-6H-thiopyrano[4′,3′:4,5]thieno[2,3-b]pyridin-4-yl}phenoxy)acetic acid], the melting point was in the range of 205 to 206 °C. `O=C(O)COc1ccc(-c2c(Cl)c(CN3C(=O)CCC3=O)nc3sc4c(c23)CCS(=O)(=O)C4)cc1` [Example 116, (4-{3-chloro-2-[(2,5-dioxo-1-pyrrolidinyl)methyl]-7,7-dioxido-5,8-dihydro-6H-thiopyrano-[4′,3′:4,5]-thieno[2,3-b]pyridin-4-yl}phenoxy)acetic acid] displayed a melting point of 260 to 261 °C.

The record behind these values is patent US6653476B2, “Thienopyridine derivatives, their production and use” (Takeda Chemical Industries, Ltd., priority 2000, dated 2003).
